Assay results published in patent publication US20250188110A1, “SPECIFIC SMALL MOLECULE INHIBITORS THAT BLOCK KMT9 METHYLTRANSFERASE ACTIVITY AND FUNCTION” (ALBERT-LUDWIGS-UNIVERSITÄT FREIBURG, priority 2021, published 2025).
Like-named read-outs stand apart in the source and are kept apart here.

Columns and labels:
KMT9 [1] = biological target: T1, KMT9 (Homo sapiens, UniProt Q9Y5N5); assay: KMT9 thermal shift assay (SyproOrange); type: binding; conditions: 500 µM compound
T1 sequence (Q9Y5N5 1-214): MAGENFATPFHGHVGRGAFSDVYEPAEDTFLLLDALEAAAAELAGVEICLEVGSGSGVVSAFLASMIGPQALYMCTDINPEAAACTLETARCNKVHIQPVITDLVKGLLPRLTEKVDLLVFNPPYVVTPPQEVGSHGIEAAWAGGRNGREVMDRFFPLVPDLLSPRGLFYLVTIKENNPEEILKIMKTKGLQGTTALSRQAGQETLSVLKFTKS
T1 sequence (Q9UI30 1-120 isoform Q9UI30-2 partner): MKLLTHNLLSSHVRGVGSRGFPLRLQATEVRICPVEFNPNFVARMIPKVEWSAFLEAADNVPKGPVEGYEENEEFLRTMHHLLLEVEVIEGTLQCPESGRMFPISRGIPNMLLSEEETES
In short: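 Recombinant KMT9 was incubated with compound and SyproOrange at 25° C in 50 mM BTP pH 8.5, 1 mM MgCl2, 1 mM DTT. It was then heated from 20° C to 95° C at 1° C per 15 s with fluorescence read each step. Tm came from a Boltzmann sigmoidal fit; ΔTm relative to DMSO control, binned in 5 K ranges.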

KMT9 [2] = biological target: T1, KMT9; assay: KMT9 methyltransferase inhibition assay, MTaseGlo luminescence (from entry 155); type: biochemical; conditions: 100 nM KMT9, 5 μM ETF1, 1 μM SAM
Procedure: For the compounds from entry 155 on in Table 1, the following procedure was used to determine IC50 values: The assay was carried out in white, opaque 384-well OptiPlates (PerkinElmer). For IC50 determination, a 2.5x substrate mix (final assay concentrations: 5 μM ETF1, 1 μM SAM and 1x MTaseGlo Reagent), a 2.5x KMT9 solution (final assay concentration 100 nM) and a 5x inhibitor stock 1:1 dilution series (concentration according to the desired range; dilution series was prepared in assay buffer containing 10% DMSO to obtain a final DMSO concentration of 2% in the assay) were prepared. 2 μL of 5x inhibitor stock and 4 μL of 2.5x KMT9 were pipetted, the plate was spun down at 700 rpm for 1 min using a Hettich UNIVERSAL 320 centrifuge and incubated at room temperature (around 25° C.) for 15 min. The reaction was initiated by adding 4 μL of 2.5x substrate mix, the plate was spun down as described before and incubated at 30° C. for 2 h. Afterwards, 10 μL of 2× MTaseGlo Detection solution was added, the plate was centrifuged as described above and incubated for 60 min at room temperature. Luminescence was measured using a PerkinElmer EnVision 2102 Multilabel Reader. Calculation of inhibition and data fitting was carried out as for entries 1-154. described above.
For the results of the methyltransferase inhibition assay shown as “Inhibition” in Table 1, “I” represents an IC50 less than 0.1 μM, “II” represents an IC50 equal or higher than 0.1 μM and less than 1 μM, “III” represents an IC50 equal or higher than 1 µM and less than 10 µM and “IV” represents an IC50 equal or higher than 10 µM

KMT9 [3] = biological target: T1, KMT9; assay: Microscale thermophoresis (MST) KMT9 binding
In short: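 His-tagged KMT9 (20 nM), RED-Tris-NTA labelled, titrated with varying compound concentrations in 25 mM HEPES pH 7.5, 100 mM NaCl, 1 mM DTT, 0.05% Tween. MST at 40% MST and 100% LED power, Nano-RED excitation; Kd binned A ≤10 nM, B 10–100, C 100–1000, D >1000 nM.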

KMT9 [4] = biological target: T1, KMT9; assay: KMT9 methyltransferase inhibition assay, 3H-SAM scintillation (entries 1-154); type: biochemical; conditions: entries 1-154: 3H-SAM assay, 25 nM KMT9, 5 μM ETF1
In short: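 Final 25 nM KMT9, 5 μM ETF1 (residues 140-275), 0.3 μM 3H-SAM plus 0.7 μM SAM in pH 8.5 BTP buffer, 2 h at 30° C. TCA-quenched, filter-washed, methylation counted by scintillation; % inhibition vs DMSO and no-enzyme controls, IC50 from four-parameter fit.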

[5] = 2 μM KMT9, read-out: Thermal shift (ΔTm)
[6] = MTaseGlo procedure (entries from 155), read-out: Inhibition (IC50)
[7] = His-tag labelled KMT9 20 nM, read-out: MST (Kd)
[8] = ΔTm, 2 μM KMT9, 5X SO, read-out: Thermal shift
[9] = microscale thermophoresis, His-tag labelled KMT9 (20 nM), read-out: MST

SMILES: Nc1nc(Cl)nc2c1c(Br)cn2[C@@H]1CC(CNCCCNCCc2ccc(F)cc2)[C@@H](O)[C@H]1O (mixture of isomers) [Compound 547, (1R,2S,3R)-3-(4-amino-5-bromo-2-chloro-7H-pyrrolo[2,3-d]pyrimidin-7-yl)-5-(((3-((4-fluorophenethyl)amino)propyl)amino)methyl)cyclopentane-1,2-diol]
- ΔTm at 500 µM (KMT9 [1]; [5]): > 20 °C
- IC50 (KMT9 [2]; [6]): 100 to 1000 nM
- Kd (KMT9 [3]; [7]): ≤ 10 nM

SMILES: O[C@@H]1[C@H](O)C(CNCCCNCCc2ccc(F)cc2)C[C@H]1n1cc(-c2cccs2)c2cnc(Cl)nc21 (mixture of isomers) [Compound 581, (1R,2S,3R)-3-(2-chloro-5-(thiophen-2-yl)-7H pyrrolo[2,3-d]pyrimidin-7-yl)-5-(((3-((4-fluorophenethyl)amino)propyl)amino)methyl)cyclopentane-1,2-diol]
- ΔTm at 500 µM (KMT9 [1]; [5]): 10 to 15 °C
- IC50 (KMT9 [2]; [6]): 1000 to 10000 nM
- Kd (KMT9 [3]; [7]): ≤ 10 nM

SMILES: O[C@@H]1[C@H](O)[C@@H](C2CCCN(CC3CC3)C2)C[C@H]1n1cc(-c2nc(Cc3ccccc3)cs2)c2cnc(Cl)nc21 (stereo partly drawn) [Compound 516, (1R,2S,3R,5R)-3-(5-(4-benzylthiazol-2-yl)-2-chloro-7H-pyrrolo[2,3-d]pyrimidin-7-yl)-5-(1-(cyclopropylmethyl)piperidin-3-yl)cyclopentane-1,2-diol]
- IC50 (KMT9 [2]; IC50 class, MTaseGlo procedure (entries from 155 on), read-out: Inhibition): 1000 to 10000 nM
- Kd (KMT9 [3]; His-tag labelled KMT9 20 nM, Kd class, read-out: MST): 100 to 1000 nM

SMILES: C=Cc1cn([C@@H]2C[C@H](CNCCCNCCc3ccccc3)[C@@H](O)[C@H]2O)c2ncncc12 [Compound 608, (1R,2S,3R,5R)-3-{5-ethenylpyrrolo[2,3-d]pyrimidin-7-yl}-5-[({3-[(2-phenylethyl)amino]propyl}amino)methyl]cyclopentane-1,2-diol]
- ΔTm at 500 µM (KMT9 [1]; [8]): ≤ 10 °C
- Kd (KMT9 [3]; [9]): 100 to 1000 nM
- IC50 (KMT9 [4]): > 10000 nM

SMILES: CCc1cn([C@@H]2C[C@H](CNCCCNCCc3ccccc3)[C@@H](O)[C@H]2O)c2ncncc12 [Compound 609, (1R,2S,3R,5R)-3-{5-ethylpyrrolo[2,3-d]pyrimidin-7-yl}-5-[({3-[(2-phenylethyl)amino]propyl}amino)methyl]cyclopentane-1,2-diol]
- ΔTm at 500 µM (KMT9 [1]; [8]): ≤ 10 °C
- Kd (KMT9 [3]; [9]): 100 to 1000 nM
- IC50 (KMT9 [4]): > 10000 nM

SMILES: C=Cc1cn([C@@H]2C[C@H](CNCCCNCCc3ccccc3)[C@@H](O)[C@H]2O)c2ncnc(C)c12 [Compound 610, (1R,2S,3R,5R)-3-(4-Methyl-5-vinyl-7H-pyrrolo[2,3-d]pyrimidin-7-yl)-5-(((3-(phenethylamino)propyl)amino)methyl)cyclopentane-1,2-diol]
- ΔTm at 500 µM (KMT9 [1]; [8]): ≤ 10 °C
- Kd (KMT9 [3]; [9]): > 1000 nM
- IC50 (KMT9 [4]): > 10000 nM

SMILES: CCc1cn([C@@H]2C[C@H](CNCCCNCCc3ccccc3)[C@@H](O)[C@H]2O)c2ncnc(C)c12 [Compound 611, (1R,2S,3R,5R)-3-(5-ethyl-4-methyl-7H-pyrrolo[2,3-d]pyrimidin-7-yl)-5-(((3-(phenethylamino)propyl)amino)methyl)cyclopentane-1,2-diol]
- ΔTm at 500 µM (KMT9 [1]; [8]): ≤ 10 °C
- Kd (KMT9 [3]; [9]): > 1000 nM
- IC50 (KMT9 [4]): > 10000 nM

SMILES: C=Cc1cn([C@@H]2C[C@H](CNCCCNCCc3ccccc3)[C@@H](O)[C@H]2O)c2ncnc(Cl)c12 [Compound 612, (1R,2S,3R,5R)-3-{4-chloro-5-ethenylpyrrolo[2,3-d]pyrimidin-7-yl}-5-[{{3-[(2-phenylethyl)amino]propyl}amino)methyl]cyclopentane-1,2-diol]
- ΔTm at 500 µM (KMT9 [1]; [8]): ≤ 10 °C
- Kd (KMT9 [3]; [9]): > 1000 nM
- IC50 (KMT9 [4]): > 10000 nM

SMILES: O=S(=O)(c1ccccc1)n1ccc(-c2cn([C@@H]3C[C@H](CNCCCNCCc4ccccc4)[C@@H](O)[C@H]3O)c3ncncc23)n1 [Compound 614, (1S,2R,3R,5R)-3-(((3-(Phenethylamino)propyl)amino)methyl)-5-(5-(1-(phenylsulfonyl)-1H-pyrazol-3-yl)-7H-pyrrolo[2,3-d]pyrimidin-7-yl)cyclopentane-1,2-diol]
- ΔTm at 500 µM (KMT9 [1]; [8]): 10 to 15 °C
- Kd (KMT9 [3]; [9]): 100 to 1000 nM
- IC50 (KMT9 [4]): 1000 to 10000 nM

SMILES: CNC(=O)[C@H]1C[C@@H](n2cc3c4c(ncnc42)NCCC3)[C@H](O)[C@@H]1O [Compound 624, (1S,2R,3S,4R)-2,3-Dihydroxy-N-methyl-4-(6,7,8,9-tetrahydro-2H-2,3,5,6-tetraazabenzo[cd]azulen-2-yl)cyclopentane-1-carboxamide]
- ΔTm at 500 µM (KMT9 [1]; [8]): ≤ 10 °C
- Kd (KMT9 [3]; [9]): > 1000 nM
- IC50 (KMT9 [4]): > 10000 nM

SMILES: CN(C)C(=O)[C@H]1C[C@@H](n2cc3c4c(ncnc42)NCCC3)[C@H](O)[C@@H]1O [Compound 625, (1S,2R,3S,4R)-2,3-Dihydroxy-N,N-dimethyl-4-(6,7,8,9-tetrahydro-2H-2,3,5,6-tetraazabenzo[cd]azulen-2-yl)cyclopentane-1-carboxamide]
- ΔTm at 500 µM (KMT9 [1]; [8]): ≤ 10 °C
- Kd (KMT9 [3]; [9]): > 1000 nM
- IC50 (KMT9 [4]): > 10000 nM

SMILES: NC[C@H]1C[C@@H](n2cc3c4c(ncnc42)NC(=O)CC3)[C@H](O)[C@@H]1O [Compound 626, 2-((1R,2S,3R,4R)-4-(Aminomethyl)-2,3-dihydroxycyclopentyl)-2,6,8,9-tetrahydro-7H-2,3,5,6-tetraazabenzo[cd]azulen-7-one]
- ΔTm at 500 µM (KMT9 [1]; [8]): ≤ 10 °C
- Kd (KMT9 [3]; [9]): > 1000 nM
- IC50 (KMT9 [4]): > 10000 nM

SMILES: O=C1CCc2cn([C@@H]3C[C@H](CNCCCNCCc4ccccc4)[C@@H](O)[C@H]3O)c3ncnc(c23)N1 [Compound 627, 2-((1R,2S,3R,4R)-2,3-dihydroxy-4-(((3-(phenethylamino)propyl)amino)methyl)cyclopentyl)-2,6,8,9-tetrahydro-7H-2,3,5,6-tetraazabenzo[cd]azulen-7-one]
- ΔTm at 500 µM (KMT9 [1]; [8]): ≤ 10 °C
- Kd (KMT9 [3]; [9]): 100 to 1000 nM
- IC50 (KMT9 [4]): > 10000 nM

SMILES: CC1CCNc2ncnc3c2c1cn3[C@@H]1C[C@H](CN)[C@@H](O)[C@H]1O (stereo partly drawn) [Compound 629, (1S,2R,3R,5R)-3-(Aminomethyl)-5-(9-methyl-6,7,8,9-tetrahydro-2H-2,3,5,6-tetraazabenzo[cd]azulen-2-yl)cyclopentane-1,2-diol]
- ΔTm at 500 µM (KMT9 [1]; [8]): ≤ 10 °C
- Kd (KMT9 [3]; [9]): > 1000 nM
- IC50 (KMT9 [4]): > 10000 nM

SMILES: NC[C@H]1C[C@@H](n2cc3c4c(ncnc42)NCCCC3)[C@H](O)[C@@H]1O [Compound 630, (1S,2R,3R,5R)-3-(Aminomethyl)-5-(7,8,9,10-tetrahydro-2,3,5,6-tetraazacycloocta [cd]inden-2 (6H)-yl)cyclopentane-1,2-diol]
- ΔTm at 500 µM (KMT9 [1]; [8]): ≤ 10 °C
- Kd (KMT9 [3]; [9]): > 1000 nM
- IC50 (KMT9 [4]): > 10000 nM

SMILES: CCc1cn([C@@H]2C[C@H](CNCCCNCCc3ccccc3)[C@@H](O)[C@H]2O)c2ncnc(Cl)c12 [Compound 632, (1R,2S,3R,5R)-3-(4-chloro-5-ethyl-7H-pyrrolo[2,3-d]pyrimidin-7-yl)-5-(((3-(phenethylamino)propyl)amino)methyl)cyclopentane-1,2-diol]
- ΔTm at 500 µM (KMT9 [1]; [8]): ≤ 10 °C
- Kd (KMT9 [3]; [9]): > 1000 nM
- IC50 (KMT9 [4]): > 10000 nM

SMILES: O[C@@H]1[C@@H](CNCCCNCCc2ccccc2)C[C@@H](n2cc(-c3[nH]ncc3Cl)c3cncnc32)[C@@H]1O [Compound 633, (1R,2S,3R,5R)-3-(5-(4-Chloro-1H-pyrazol-5-yl)-7H-pyrrolo[2,3-d]pyrimidin-7-yl)-5-(((3-(phenethylamino)propyl)amino)methyl)cyclopentane-1,2-diol]
- ΔTm at 500 µM (KMT9 [1]; [8]): ≤ 10 °C
- Kd (KMT9 [3]; [9]): > 1000 nM
- IC50 (KMT9 [4]): 1000 to 10000 nM
